{"source": "patent US11911178B2", "about": "“System and method to detect and treat arrhythmogenic regions in atrial fibrillation” (Northwestern University, priority 2020, dated 2024)", "system": "atrial fibrillation", "experiment": "open chest epicardial electrogram mapping of atrial fibrillation in animals at baseline and after ROS scavenger (NAC) administration", "assay_type": "in vivo", "method": "In an illustrative embodiment, the proposed method and system involve use of an electrogram to monitor a patient's heart characteristics. An electrode recording system can be used to receive and store baseline electrogram signals from the heart of the patient during sinus rhythm. As discussed in more detail below, mapping is performed based on the received electrogram signals to generate high resolution maps in multiple atrial regions of the patient. A reactive oxygen species scavenger (e.g., NAC) is then administered to the patient. The electrogram is used to measure various characteristics of the heart after administration of the ROS scavenger. These characteristics can include dominant frequency (DF), cycle length (CL), organization index (OI), fractionation index (FI), recurrence morphology percentage (Rec %), Shannon's entropy (ShEn), conduction velocity, and voltage. The monitored characteristics can also include the number and stability of rotational, focal, and wavelet activities in different atrial regions of the heart. The various atrial regions of the heart can include posterior left atrium (PLA), left atrial free wall (LAFW), left atrial appendage (LAA), posterior right atrium (PRA), right atrial free wall (RAFW), right atrial appendage (RAA), etc. In alternative embodiments, different heart regions may be used.\nIn an illustrative embodiment, the proposed system uses a computing system to perform calculation of percentage changes of AF characteristics at each electrogram electrode location at different time intervals subsequent to administration of the ROS scavenger. The percentage changes are based on the baseline readings from the electrogram (i.e., the readings received prior to administration of the ROS scavenger). For example, the calculations of percentage changes can be after 30 minutes, 1 hour, and 2 hours in one embodiment. Alternatively, different or additional times may be used, such as 45 minutes, 1.5 hours, 3 hours, 4 hours, etc. In some implementations, rebolus of the ROS scavenger administration may be performed in between the time periods.\nReferring to FIG. 2B, a baseline measurement for each of a plurality of characteristics is obtained using the electrogram system in an operation 230. The baseline measurements are measured prior to administration of the ROS scavenger in an operation 235, and mapping of the various characteristics is performed based on the measured characteristics in an operation 240. Any of the characteristics described herein can be used. The system continues conducting measurements using the electrogram at various periods of time subsequent to administration of the ROS scavenger, such as 30 minutes, 1 hour, 2 hours, etc. The system also calculates the percentage change for each of the measured characteristics at each of the periods of time, as compared to the baseline measurements in an operation 245. Hotspots are identified for each measured characteristic based on the percentage changes in the operation 245. In one embodiment, the determined percentage changes are compared to a percentage change threshold to determine whether a given area is a hotspot. The percentage change threshold can be 5%, 8%, 10%, 20%, etc. depending on the implementation. Alternatively, instead of basing the determination on the percentage change, the determination of whether an area is a hotspot can be based on the amount of absolute change in the measured characteristic, and can vary for each characteristic. Based on the identified hotspots, the system also calculates the percentage of overlap among the various hotspots from each of the characteristics in an operation 250. The system maps the overlapping hotspots (based on the percentage of overlap) so that they can be visualized in an operation 255, and the overlapping hotspots are then targeted for treatment.\nExperiments were conducted on animals using the techniques described herein. […]"}
{"smiles": "CC(=O)N[C@@H](CS)C(=O)O", "note": "[NAC, N-acetylcysteine]", "values": [{"measurement": "mapping field showing hotspot overlap in >50% of the EGM measures", "setting": "Animal 1, LAFW, 1 hour after administration", "result": 36, "unit": "%"}, {"measurement": "mapping field showing hotspot overlap in >50% of the EGM measures", "setting": "Animal 1, LAFW, 2 hours after administration", "result": 13, "unit": "%"}, {"measurement": "mapping field showing hotspot overlap in >50% of the EGM measures", "setting": "Animal 8, LAFW, 1 hour after administration", "result": 15, "unit": "%"}, {"measurement": "mapping field showing hotspot overlap in >50% of the EGM measures", "setting": "Animal 8, LAFW, (2) hours after administration", "result": 48, "unit": "%"}, {"measurement": "DF peak", "setting": "LAFW and PLA, 1 hour after NAC, baseline peak 11.5 Hz, histogram of all 10 hearts", "result": 9, "unit": "Hz"}, {"measurement": "DF peak", "setting": "LAFW and PLA, 2 hours after NAC, baseline peak 11.5 Hz, histogram of all 10 hearts", "result": 7.5, "unit": "Hz"}, {"measurement": "stability of observed 360 degree rotations in activation maps", "setting": "LAFW, after NAC administration", "result": "significantly decreased"}, {"measurement": "DF peak", "setting": "RAA, after 1 hr NAC, baseline peak 8.5 Hz", "result": 7.5, "unit": "Hz"}, {"measurement": "rotational source", "setting": "after NAC administration", "result": "reduced"}, {"measurement": "mapping field with overlap in more than 50% of the electrogram measurements", "setting": "percentage change threshold 5%, Animal 1, 1 hour after administration", "result": 19, "unit": "%"}, {"measurement": "mapping field with overlap in more than 50% of the electrogram measurements", "setting": "percentage change threshold 5%, Animal 1, 2 hours after administration", "result": 27, "unit": "%"}, {"measurement": "mapping field with overlap in more than 50% of the electrogram measurements", "setting": "percentage change threshold 5%, Animal 8, 1 hour after administration", "result": 17, "unit": "%"}, {"measurement": "mapping field with overlap in more than 50% of the electrogram measurements", "setting": "percentage change threshold 5%, Animal 8, 2 hours after administration", "result": 47, "unit": "%"}, {"measurement": "mapping field with overlap in more than 50% of the electrogram measurements", "setting": "percentage change threshold 20%, Animal 1, after 1 hour", "result": 2, "unit": "%"}, {"measurement": "mapping field with overlap in more than 50% of the electrogram measurements", "setting": "percentage change threshold 20%, Animal 1, after 2 hours", "result": 7, "unit": "%"}, {"measurement": "mapping field with overlap in more than 50% of the electrogram measurements", "setting": "percentage change threshold 20%, Animal 8, after 1 hour", "result": 6, "unit": "%"}, {"measurement": "mapping field with overlap in more than 50% of the electrogram measurements", "setting": "percentage change threshold 20%, Animal 8, after 2 hours", "result": 29, "unit": "%"}]}
